Data: paper PMC3185947 (British Journal of Cancer, 2011)
Like-named read-outs stand apart in the source and are kept apart here. Marks after values point to notes of the source that are not given here.

Settings: in vivo; for OSI-420 AUC0–24 / OSI-420 Cmax / OSI-420 Tmax, median (range) / OSI-420 Tmax: human
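Note: pharmacokinetic parameters derived by non-compartmental analysis.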

For `C#Cc1cccc(Nc2ncnc3cc(OCCOC)c(OCCO)cc23)c1` [OSI-420], the “OSI-420 AUC0–24” value (150 mg) was 2.56 (0.599–10.5) ^a μg h ml^−1, the “OSI-420 Cmax” value (150 mg) was 0.165 (0.0452–0.568) μg ml^−1 and the “OSI-420 Tmax, median (range)” value (150 mg) was 4.0 (1.05–23.9) h. The “OSI-420 AUC0–24” value (200 mg) was 4.55 (0.996–19.2) μg h ml^−1, the “OSI-420 Cmax” value (200 mg) was 0.278 (0.0617–0.864) μg ml^−1 and the “OSI-420 Tmax, median (range)” value (200 mg) was 2.0 (1.00–24.0) h. The “OSI-420 AUC0–24” value (225 mg) was 4.10 (1.57–19.7) μg h ml^−1, the “OSI-420 Cmax” value (225 mg) was 0.260 (0.116–0.908) μg ml^−1 and the “OSI-420 Tmax, median (range)” value (225 mg) was 2.0 (0.930–8.00) h. The “OSI-420 AUC0–24” value (250 mg) was 3.32 (1.52–16.4) μg h ml^−1, the “OSI-420 Cmax” value (250 mg) was 0.219 (0.119–0.760) μg ml^−1 and the “OSI-420 Tmax, median (range)” value (250 mg) was 4.0 (1.00–8.00) h. The “OSI-420 AUC0–24” value (275 mg) was 3.62 (1.51–15.7) μg h ml^−1, the “OSI-420 Cmax” value (275 mg) was 0.223 (0.107–0.929) μg ml^−1 and the “OSI-420 Tmax, median (range)” value (275 mg) was 2.0 (1.00–8.02) h. For the same compound, the “OSI-420 AUC0–24” value (300 mg) was 4.23 (1.38–6.32) μg h ml^−1, the “OSI-420 Cmax” value (300 mg) was 0.273 (0.133–0.346) μg ml^−1 and the “OSI-420 Tmax, median (range)” value (300 mg) was 2.0 (1.00–2.03) h. For the same compound, the “OSI-420 AUC0–24” value (325 mg) was 4.18 (2.26, 6.09) μg h ml^−1, the “OSI-420 Cmax” value (325 mg) was 0.344 (0.222, 0.426) μg ml^−1 and the “OSI-420 Tmax, median (range)” value (325 mg) was 1.5 (2.00, 1.00) h. For the same compound, the “OSI-420 AUC0–24” value (350 mg) was 2.33 (2.94, 1.72) μg h ml^−1, the “OSI-420 Cmax” value (350 mg) was 0.169 (0.243, 0.0945) μg ml^−1 and the “OSI-420 Tmax, median (range)” value (350 mg) was 2.0 (2.00, 2.03) h. The “OSI-420 AUC0–24” value (375 mg) was 3.80 µg·h/mL, the “OSI-420 Cmax” value (375 mg) was 0.253 µg/mL and the “OSI-420 Tmax” value (375 mg) was 1.0 h. For the same compound, the “OSI-420 AUC0–24” value (400 mg) was 6.84 µg·h/mL, the “OSI-420 Cmax” value (400 mg) was 0.454 µg/mL and the “OSI-420 Tmax” value (400 mg) was 2.0 h. The “OSI-420 AUC0–24” value (425 mg) was 5.02 µg·h/mL, the “OSI-420 Cmax” value (425 mg) was 0.293 µg/mL and the “OSI-420 Tmax” value (425 mg) was 2.0 h. For the same compound, the “OSI-420 AUC0–24” value (450 mg) was 8.78 µg·h/mL, the “OSI-420 Cmax” value (450 mg) was 0.489 µg/mL and the “OSI-420 Tmax” value (450 mg) was 4.0 h. For the same compound, the “Interpatient and intrapatient variability of PK” value was “High”.
